One series deals with KG-1 AML cells. Put plainly: MTT cell viability assay, KG1. In kind it is cell-based, human. The conditions noted are these: KG-1, expresses SHIP1, 36 hours. How it is done:
(A) SHIP1 expression in KG1 and MG63 cells was determined by Western blotting (top). Membranes were reprobed with antibodies against b-actin to confirm equal loading (lower panel). One representative blot of 2 individual experiments is shown. (B) KG1 and MG63 cells were plated in duplicate in 96 well plates, and treated for 36 hours with increasing concentrations of the 3α-aminocholestane. Cell viability was assessed by MTT assay. Results represent the mean of three individual experiments. (C) KG1 cells were treated with increasing concentrations of 3α-aminocholestane for 36 hours and hallmarks of apoptosis were identified in cell lysates by Western Blot analysis. […] (D) KG1 cells were treated with increasing concentrations of 3α-aminocholestane, and the percentage of AnnexinV and PI positive cells was determined by FACS analysis. […]
Cell viability assay: Cells were treated in duplicate for 36 hours with increasing concentrations of 3α-aminocholestane or vehicle. […] Formed crystals were dissolved in dimethyl sulfoxide and optical density (OD) was measured at 570 nm. The OD of compound treated cells was divided by the OD of their vehicle control, and the viability was expressed as a percentage of untreated cells. Results are expressed as mean±SEM of three individual experiments.
For orientation: Tetrazolium dyes change colour on reduction, which living cells bring about.

Another series addresses T1, SHIP2 (Homo sapiens, UniProt O15357).
T1 sequence (O15357 1-1258): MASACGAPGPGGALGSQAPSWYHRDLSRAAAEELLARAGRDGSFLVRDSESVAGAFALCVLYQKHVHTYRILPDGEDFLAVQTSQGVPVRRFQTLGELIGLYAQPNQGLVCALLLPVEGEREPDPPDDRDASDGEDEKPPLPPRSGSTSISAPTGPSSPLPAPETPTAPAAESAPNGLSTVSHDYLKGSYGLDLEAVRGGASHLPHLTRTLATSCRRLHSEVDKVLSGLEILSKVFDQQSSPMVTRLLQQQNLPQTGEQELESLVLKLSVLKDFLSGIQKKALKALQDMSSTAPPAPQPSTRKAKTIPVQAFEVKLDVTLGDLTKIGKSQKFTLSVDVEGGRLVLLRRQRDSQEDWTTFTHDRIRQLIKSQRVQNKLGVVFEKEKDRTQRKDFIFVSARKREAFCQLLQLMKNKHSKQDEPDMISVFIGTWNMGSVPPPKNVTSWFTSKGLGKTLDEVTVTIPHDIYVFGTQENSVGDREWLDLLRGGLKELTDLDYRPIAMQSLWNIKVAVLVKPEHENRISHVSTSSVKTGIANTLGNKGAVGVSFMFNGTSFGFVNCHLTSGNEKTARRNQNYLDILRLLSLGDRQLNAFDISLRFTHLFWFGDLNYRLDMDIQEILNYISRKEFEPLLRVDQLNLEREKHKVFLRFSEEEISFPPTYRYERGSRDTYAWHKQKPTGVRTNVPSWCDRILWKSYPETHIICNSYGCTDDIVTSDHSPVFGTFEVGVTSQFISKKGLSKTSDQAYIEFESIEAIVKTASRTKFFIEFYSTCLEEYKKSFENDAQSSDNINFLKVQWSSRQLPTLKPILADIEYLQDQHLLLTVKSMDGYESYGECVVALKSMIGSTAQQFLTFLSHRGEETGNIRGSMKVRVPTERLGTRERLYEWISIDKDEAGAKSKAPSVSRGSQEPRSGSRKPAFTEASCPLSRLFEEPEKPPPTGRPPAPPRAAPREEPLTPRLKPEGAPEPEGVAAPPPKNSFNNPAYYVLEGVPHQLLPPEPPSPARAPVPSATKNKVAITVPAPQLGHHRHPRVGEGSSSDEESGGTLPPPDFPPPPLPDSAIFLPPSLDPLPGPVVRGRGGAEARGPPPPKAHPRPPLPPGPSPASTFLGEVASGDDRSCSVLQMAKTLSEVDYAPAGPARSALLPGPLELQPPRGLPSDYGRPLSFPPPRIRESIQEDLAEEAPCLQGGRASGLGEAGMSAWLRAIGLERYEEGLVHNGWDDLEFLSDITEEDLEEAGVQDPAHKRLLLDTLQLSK
Put plainly: Malachite Green phosphate release assay, SHIP2. The series is classed as biochemical. The conditions noted are these: at 1 mM.

The conditions of series [1]: mouse, in vivo.

Consider `CC(C)CCC[C@@H](C)[C@H]1CC[C@H]2[C@@H]3CC[C@H]4C[C@H](N)CC[C@]4(C)[C@H]3CC[C@]12C` [NSC23922, (3R,5S,8R,9S,10S,13R,14S,17R)-10,13-dimethyl-17-[(2R)-6-methylheptan-2-yl]-2,3,4,5,6,7,8,9,11,12,14,15,16,17-tetradecahydro-1H-cyclopenta[a]phenanthren-3-amine], for which, in the series with KG-1 AML cells, the “growth and survival of cells (MTT viability)” value is “decreases the growth and survival”. Further, the “inhibition of SHIP2 activity” value on SHIP2 is “fails to inhibit”. In series [1], the “pulmonary myeloid infiltration and lung consolidation” value is “absence of the pulmonary myeloid infiltration and lung consolidation”.

Values taken from patent US9006221B2, “Method of modulating ship activity” (H. Lee Moffitt Cancer Center and Reserach Institute, Inc., priority 2008, dated 2015).
